Test results published in ChEMBL document CHEMBL1201862, “PubChem BioAssay data set” (2004).
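Grown in 96-well plates, cells were treated for 48 hours with each compound at five concentrations. Insufficient inhibition: endpoint recorded as highest concentration tested. At the GI50, growth is halved.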 Calls of active or inactive are those of the source. Rule as the data show it: active = GI50 up to about 1.1 µM and inactive = higher.

Key:
Experiment in all cases: NCI anticancer screen, dose series, 48 h
DU-145 = system: DU-145
UACC-257 = system: UACC-257
OVCAR-5 = system: OVCAR-5
NCI/ADR-RES = system: NCI/ADR-RES
ACHN = system: ACHN
SF-295 = system: SF-295
NCI-H23 = system: NCI-H23
786-0 = system: 786-0
OVCAR-3 = system: OVCAR-3
KM12 = system: KM12
PC-3 = system: PC-3
HCC 2998 = system: HCC 2998
CAKI-1 = system: CAKI-1
TK-10 = system: TK-10
HT-29 = system: HT-29
Malme-3M = system: Malme-3M
T47D = system: T47D
HOP-62 = system: HOP-62
MOLT-4 = system: MOLT-4
NCI-H460 = system: NCI-H460

Measured: GI50

O=C(NCc1ccccc1)c1cc2ccccc2o/c1=N\c1ccccc1F
inactive: DU-145 29.7 µM | UACC-257 34.4 µM | OVCAR-5 43.4 µM | NCI/ADR-RES 46.7 µM | ACHN 19.5 µM | SF-295 22 µM | NCI-H23 21.5 µM | 786-0 10.8 µM | OVCAR-3 46 µM | KM12 25.7 µM | PC-3 33.5 µM | HCC 2998 23.1 µM | CAKI-1 14 µM | TK-10 13.6 µM | HT-29 45.8 µM | Malme-3M 25.2 µM | T47D 16.6 µM | HOP-62 15.6 µM | MOLT-4 > 100 µM | NCI-H460 41.7 µM

C/C(=N/c1[nH]c(=O)cc2c1C(=O)CC2)N(C)C
inactive: DU-145 > 200 µM | UACC-257 > 200 µM | OVCAR-5 > 200 µM | NCI/ADR-RES > 200 µM | ACHN > 200 µM | SF-295 > 200 µM | NCI-H23 > 200 µM | 786-0 > 200 µM | OVCAR-3 > 200 µM | KM12 > 200 µM | PC-3 > 200 µM | HCC 2998 > 200 µM | CAKI-1 > 200 µM | TK-10 > 200 µM | HT-29 > 200 µM | Malme-3M > 200 µM | T47D > 200 µM | HOP-62 > 200 µM | MOLT-4 > 200 µM | NCI-H460 > 200 µM

CS/C(=N\C#N)NC1CC(n2cc(C)c(=O)[nH]c2=O)OC1CO (stereo not given)
inactive: DU-145 > 100 µM | UACC-257 > 100 µM | OVCAR-5 > 100 µM | NCI/ADR-RES > 100 µM | ACHN > 100 µM | SF-295 > 100 µM | NCI-H23 > 100 µM | 786-0 > 100 µM | OVCAR-3 > 100 µM | KM12 > 100 µM | PC-3 > 100 µM | HCC 2998 > 100 µM | CAKI-1 > 100 µM | TK-10 > 100 µM | HT-29 > 100 µM | Malme-3M > 100 µM | T47D > 100 µM | HOP-62 > 100 µM | MOLT-4 > 100 µM | NCI-H460 > 100 µM

COc1ccc(/N=N/c2c(C)c(C#N)c(=S)n(C3OC(COC(C)=O)C(OC(C)=O)C(OC(C)=O)C3OC(C)=O)c2-c2ccccc2)cc1 (stereo not given)
inactive: DU-145 7.03 µM | UACC-257 22.4 µM | OVCAR-5 13.2 µM | NCI/ADR-RES 3.39 µM | ACHN 46.9 µM | SF-295 5.85 µM | NCI-H23 15.6 µM | 786-0 3.12 µM | OVCAR-3 13.9 µM | KM12 8.43 µM | PC-3 5.98 µM | HCC 2998 23.4 µM | CAKI-1 9.48 µM | TK-10 19.2 µM | HT-29 5.94 µM | Malme-3M 7.23 µM | T47D 19.4 µM | HOP-62 11.6 µM | MOLT-4 3.08 µM | NCI-H460 4.76 µM
